In ChEMBL document CHEMBL5247656, “Discovery of a Potent, Cooperative, and Selective SOS1 PROTAC ZZ151 with In Vivo Antitumor Efficacy in KRAS-Mutant Cancers” (J Med Chem, 2023):
pEC50, pIC50, pKd: −log10 of the molar value. Calls of active or inactive are those of the source. The calls are words filed in the database; no cut-off is given here.

Assays:
[1] = target: von Hippel-Lindau disease tumor suppressor/Son of sevenless homolog 1/Elongin-B/Elongin-C (Homo sapiens) (UniProt Q07889+P40337+Q15370+Q15369); experiment: Binding affinity to GST tagged human SOS1(564 to 1049 residues)-6his tagged human VHL (54 to 213 residues)-human ElonginC (17 to 112 residues)-human ElonginB (1 to 104 residues) expressed in Escherichia coli BL21 (DE3) cells assessed as ternary complex formation by measuring maximal HTRF signals incubated for 15 mins by HTRF analysis
[2] = target: T1, von Hippel-Lindau disease tumor suppressor/Son of sevenless homolog 1 (Homo sapiens) (UniProt Q07889+P40337); experiment: PROTAC activity at VHL/SOS1 in human NCI-H358 cells assessed as induction of SOS1 protein degradation at 0.1 uM incubated for 24 hrs by Immunoblot analysis relative to control; type: cell-based
[3] = target: T2, Son of sevenless homolog 1 (Homo sapiens, UniProt Q07889); experiment: (§1) Binding affinity to GST-tagged human SOS1 (564 to 1049 residues) expressed in Escherichia coli BL21 (DE3) cells assessed as binary complex formation by measuring dissociation constant incubated for 15 mins by fluorescence polarization-based displacement assay
T2 sequence (Q07889 whole entry): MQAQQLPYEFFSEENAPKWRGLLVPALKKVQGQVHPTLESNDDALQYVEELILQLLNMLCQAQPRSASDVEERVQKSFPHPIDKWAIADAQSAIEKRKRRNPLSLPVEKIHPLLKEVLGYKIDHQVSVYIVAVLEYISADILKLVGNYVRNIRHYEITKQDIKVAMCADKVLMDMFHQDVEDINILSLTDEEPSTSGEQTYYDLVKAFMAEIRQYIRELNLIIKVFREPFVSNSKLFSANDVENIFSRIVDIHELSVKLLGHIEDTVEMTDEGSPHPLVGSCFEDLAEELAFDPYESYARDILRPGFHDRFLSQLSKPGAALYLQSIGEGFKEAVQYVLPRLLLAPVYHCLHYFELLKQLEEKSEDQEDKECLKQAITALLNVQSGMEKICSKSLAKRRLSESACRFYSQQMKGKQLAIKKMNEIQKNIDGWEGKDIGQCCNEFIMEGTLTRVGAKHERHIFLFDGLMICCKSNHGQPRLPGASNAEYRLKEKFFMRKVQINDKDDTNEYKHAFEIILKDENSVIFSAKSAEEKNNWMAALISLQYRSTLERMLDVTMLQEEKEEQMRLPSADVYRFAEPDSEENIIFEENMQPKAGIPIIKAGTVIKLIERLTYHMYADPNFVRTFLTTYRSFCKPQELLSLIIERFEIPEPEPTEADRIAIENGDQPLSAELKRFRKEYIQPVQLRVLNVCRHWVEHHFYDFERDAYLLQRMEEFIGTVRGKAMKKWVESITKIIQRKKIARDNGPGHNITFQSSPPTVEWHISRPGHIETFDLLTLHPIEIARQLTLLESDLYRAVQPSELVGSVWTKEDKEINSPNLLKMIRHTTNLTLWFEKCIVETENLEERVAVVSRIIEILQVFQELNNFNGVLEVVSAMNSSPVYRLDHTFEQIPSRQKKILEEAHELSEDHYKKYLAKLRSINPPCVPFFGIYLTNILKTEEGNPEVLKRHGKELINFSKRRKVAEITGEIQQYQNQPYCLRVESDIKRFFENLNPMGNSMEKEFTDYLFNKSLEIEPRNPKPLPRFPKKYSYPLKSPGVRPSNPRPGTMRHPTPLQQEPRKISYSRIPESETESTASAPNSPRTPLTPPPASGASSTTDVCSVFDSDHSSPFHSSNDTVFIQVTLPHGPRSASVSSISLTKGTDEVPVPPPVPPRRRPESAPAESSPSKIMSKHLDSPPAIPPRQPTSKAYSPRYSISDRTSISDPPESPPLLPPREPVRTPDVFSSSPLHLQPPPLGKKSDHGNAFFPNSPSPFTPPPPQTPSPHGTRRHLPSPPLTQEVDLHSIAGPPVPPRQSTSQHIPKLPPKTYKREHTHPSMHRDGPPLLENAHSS

[4] = target: T1, von Hippel-Lindau disease tumor suppressor/Son of sevenless homolog 1 (Homo sapiens); experiment: PROTAC activity at VHL/SOS1 in human NCI-H358 cells assessed as induction of SOS1 protein degradation by measuring maximal efficacy at 2 to 2000 nM incubated for 24 hrs by Immunoblot analysis relative to control; type: cell-based; details: dose 2-2000 nM
[5] = target: T1, von Hippel-Lindau disease tumor suppressor/Son of sevenless homolog 1 (Homo sapiens); experiment: PROTAC activity at VHL/SOS1 in human NCI-H358 cells assessed as induction of SOS1 protein degradation at 1.0 uM incubated for 24 hrs by Immunoblot analysis relative to control; type: cell-based
[6] = target: T3, Son of sevenless homolog 1 (Homo sapiens) (UniProt Q07889); experiment: Co-operativity factor, ratio of Kd for binding affinity to GST-tagged human SOS1 (564 to 1049 reisudes) expressed in Escherichia coli BL21 (DE3) cells assessed as binary complex formation to Kd for binding affinity to GST-tagged human SOS1 (564 to 1049 residues) expressed in Escherichia coli BL21 (DE3) cells assessed as ternary complex formation in the presence of 6His tagged human VCB
T3 sequence (whole entry): T2 sequence (Q07889 whole entry)

[7] = target: T2, Son of sevenless homolog 1; experiment: as §1, with “ternary” for “binary”, “mins in the presence of 6His tagged human VCB” for “mins”
[8] = test system: NCI-H358; experiment: Antiproliferative activity against human NCI-H358 cells harboring KRAS G12C mutant assessed as inhibition of cell proliferation incubated for 7 days by CellTiterGlo-3D proliferation assay; type: functional, cell-based; details: NCI-H358, 168 h
[9] = test system: MIA PaCa-2; experiment: Antiproliferative activity against human MIA PaCa-2 cells harboring KRAS G12C mutant assessed as inhibition of cell proliferation incubated for 7 days by CellTiterGlo-3D proliferation assay; type: functional, cell-based; details: MIA PaCa-2, 168 h
[10] = test system: SW-620; experiment: Antiproliferative activity against human SW620 cells harboring KRAS G12V mutant assessed as inhibition of cell proliferation incubated for 7 days by CellTiterGlo-3D proliferation assay; type: functional, cell-based; details: SW-620, 168 h
[11] = target: T3, Son of sevenless homolog 1 (Homo sapiens); experiment: Induction of SOS1 degradation in human NCI-H358 cells at 0.1 to 1 uM incubated for 24 hrs by immunoblot analysis; type: cell-based; details: dose 0.1-1 µM
[12] = test system: ASPC1; experiment: Antiproliferative activity against human ASPC1 cells harboring KRAS G12D mutant assessed as inhibition of cell proliferation incubated for 7 days by CellTiterGlo-3D proliferation assay; type: functional, cell-based; details: ASPC1, 168 h
[13] = test system: PANC-1; experiment: Antiproliferative activity against human PANC-1 cells harboring KRAS G12D mutant assessed as inhibition of cell proliferation incubated for 7 days by CellTiterGlo-3D proliferation assay; type: functional, cell-based; details: PANC-1, 168 h
[14] = test system: LoVo; experiment: Antiproliferative activity against human LoVo cells harboring KRAS G13D mutant assessed as inhibition of cell proliferation incubated for 7 days by CellTiterGlo-3D proliferation assay; type: functional, cell-based; details: 168 h
[15] = test system: A549; experiment: Antiproliferative activity against human A549 cells harboring KRAS G12S mutant assessed as inhibition of cell proliferation incubated for 7 days by CellTiterGlo-3D proliferation assay; type: functional, cell-based; details: A549, 168 h
[16] = target: von Hippel-Lindau disease tumor suppressor/Son of sevenless homolog 1 (Homo sapiens, UniProt P40337+Q07889); experiment: PROTAC activity at VHL/SOS1 in human NCI-H358 cells assessed as induction of SOS1 protein degradation incubated for 24 hrs by Immunoblot analysis; type: cell-based

SMILES | Activity [1] | Activity [2] [%] | pKd [3] | Emax [4] [%] | Activity [5] [%] | Ratio [6] | pKd [7] | also measured
COc1cc2nc(C)nc(N[C@H](C)c3cc(N)cc(C(F)(F)F)c3)c2cc1C1CCN(CCCCCCC(=O)N[C@H](C(=O)N2C[C@H](O)C[C@H]2C(=O)N[C@@H](C)c2ccc(-c3scnc3C)cc2)C(C)(C)C)CC1 | inactive | 9.77 | 7.35 | 9.1 | 10.7 | 2.7 | 7.79 | –
COc1cc2nc(C)nc(N[C@H](C)c3cc(N)cc(C(F)(F)F)c3)c2cc1C1CCN(C(=O)C2CN(CCC(=O)N[C@H](C(=O)N3C[C@H](O)C[C@H]3C(=O)N[C@@H](C)c3ccc(-c4scnc4C)cc3)C(C)(C)C)C2)CC1 | – | 9.8 | – | – | 11.2 | – | – | –
COc1cc2nc(C)nc(N[C@H](C)c3cc(N)cc(C(F)(F)F)c3)c2cc1C1CCN(C(=O)CCCOCC(=O)N[C@H](C(=O)N2C[C@H](O)C[C@H]2C(=O)N[C@@H](C)c2ccc(-c3scnc3C)cc2)C(C)(C)C)CC1 | inactive | 1.36 | 7.20 | 20.9 | 6.52 | 2.3 | 7.56 | –
COc1cc2nc(C)nc(N[C@H](C)c3cc(N)cc(C(F)(F)F)c3)c2cc1C1CCN(C(=O)[C@H]2CC[C@H](C(=O)N[C@H](C(=O)N3C[C@H](O)C[C@H]3C(=O)N[C@@H](C)c3ccc(-c4scnc4C)cc3)C(C)(C)C)CC2)CC1 | – | 3.24 | – | – | 8.52 | – | – | –
COc1cc2nc(C)nc(N[C@H](C)c3cc(N)cc(C(F)(F)F)c3)c2cc1C1CCN(C(=O)CCCCCCCC(=O)N[C@H](C(=O)N2C[C@H](O)C[C@H]2C(=O)N[C@@H](C)c2ccc(-c3scnc3C)cc2)C(C)(C)C)CC1 | – | 31.4 | – | – | 80.2 | – | – | –
COc1cc2nc(C)nc(N[C@H](C)c3cc(N)cc(C(F)(F)F)c3)c2cc1C1CCN(CCCCCC(=O)N[C@H](C(=O)N2C[C@H](O)C[C@H]2C(=O)N[C@@H](C)c2ccc(-c3scnc3C)cc2)C(C)(C)C)CC1 | – | 3.04 | – | – | 2.02 | – | – | –
COc1cc2nc(C)nc(N[C@H](C)c3cc(N)cc(C(F)(F)F)c3)c2cc1C1CCN(C(=O)CCCCCCCCCC(=O)N[C@H](C(=O)N2C[C@H](O)C[C@H]2C(=O)N[C@@H](C)c2ccc(-c3scnc3C)cc2)C(C)(C)C)CC1 | – | 9.65 | – | – | 37.9 | – | – | –
COc1cc2nc(C)nc(N[C@H](C)c3cc(N)cc(C(F)(F)F)c3)c2cc1C1CCN(C(=O)CCCCCCCCC(=O)N[C@H](C(=O)N2C[C@H](O)C[C@H]2C(=O)N[C@@H](C)c2ccc(-c3scnc3C)cc2)C(C)(C)C)CC1 | – | 0 | – | – | 0 | – | – | –
COc1cc2nc(C)nc(NC(C)c3cc(N)cc(C(F)(F)F)c3)c2cc1C1CCN(C(C)=O)CC1 (stereo not drawn) | inactive | – | 7.57 | – | – | – | 7.58 | pIC50 [8]: 7.13; pIC50 [9]: 7.31; pIC50 [10]: 7.44; Activity [11]: inactive; pIC50 [12]: 7.44; pIC50 [13]: 7.64; pIC50 [14]: 7.10; pIC50 [15]: 6.87
COc1cc2nc(C)nc(N[C@H](C)c3cc(N)cc(C(F)(F)F)c3)c2cc1C1CCN(C(=O)CCCC(=O)N[C@H](C(=O)N2C[C@H](O)C[C@H]2C(=O)N[C@@H](C)c2ccc(-c3scnc3C)cc2)C(C)(C)C)CC1 | – | 9.28 | – | – | 11.7 | – | – | –
COc1cc2nc(C)nc(N[C@H](C)c3cc(N)cc(C(F)(F)F)c3)c2cc1C1CCN(C(=O)CCCCCCC(=O)N[C@H](C(=O)N2C[C@H](O)C[C@H]2C(=O)N[C@@H](C)c2ccc(-c3scnc3C)cc2)C(C)(C)C)CC1 | inactive | 25.2 | 7.10 | 39.7 | 47.3 | 2.9 | 7.57 | –
COc1cc2nc(C)nc(N[C@H](C)c3cc(N)cc(C(F)(F)F)c3)c2cc1C1CCN(C(=O)C2CCN(CCC(=O)N[C@H](C(=O)N3C[C@H](O)C[C@H]3C(=O)N[C@@H](C)c3ccc(-c4scnc4C)cc3)C(C)(C)C)CC2)CC1 | – | 21.7 | – | – | 22.6 | – | – | –
COc1cc2nc(C)nc(N[C@H](C)c3cc(N)cc(C(F)(F)F)c3)c2cc1C1CCN(C(=O)CCCCC(=O)N[C@H](C(=O)N2C[C@H](O)C[C@H]2C(=O)N[C@@H](C)c2ccc(-c3scnc3C)cc2)C(C)(C)C)CC1 | inactive | 16.4 | 7.12 | 42.9 | 37 | 2.8 | 7.57 | –
COc1cc2nc(C)nc(N[C@H](C)c3cc(N)cc(C(F)(F)F)c3)c2cc1C1CCN(C(=O)CCOCCC(=O)N[C@H](C(=O)N2C[C@H](O)C[C@H]2C(=O)N[C@@H](C)c2ccc(-c3scnc3C)cc2)C(C)(C)C)CC1 | inactive | 0 | 7.02 | 37.6 | 22.9 | 2.8 | 7.47 | –
COc1cc2nc(C)nc(N[C@H](C)c3cc(N)cc(C(F)(F)F)c3)c2cc1C1CCN(C(=O)COCCCC(=O)N[C@H](C(=O)N2C[C@H](O)C[C@H]2C(=O)N[C@@H](C)c2ccc(-c3scnc3C)cc2)C(C)(C)C)CC1 | – | 54.6 | 6.81 | 97.9 | 90.2 | 8.9 | 7.76 | pEC50 [16]: 7.31
COc1cc2nc(C)nc(N[C@H](C)c3cc(N)cc(C(F)(F)F)c3)c2cc1C1CCN(C(=O)COCCOCC(=O)N[C@H](C(=O)N2C[C@H](O)C[C@H]2C(=O)N[C@@H](C)c2ccc(-c3scnc3C)cc2)C(C)(C)C)CC1 | – | 19.6 | – | – | 62.5 | – | – | –
COc1cc2nc(C)nc(N[C@H](C)c3cc(N)cc(C(F)(F)F)c3)c2cc1C1CCN(CCCCCCCC(=O)N[C@H](C(=O)N2C[C@H](O)C[C@H]2C(=O)N[C@@H](C)c2ccc(-c3scnc3C)cc2)C(C)(C)C)CC1 | – | 9.25 | – | – | 7.32 | – | – | –
